The subject of experiment [1] is stroke model from ligation of the middle cerebral artery. Conditions: preclinical, optimal dose of 10 mg/kg; cited from earlier work.
For another experiment, the system named is cranial trauma model. Conditions: preclinical, optimal dose of 10 mg/kg; cited from earlier work.
Experiment [2] has as its system dementia from damage due to beta amyloid. Conditions: preclinical, optimal dose of 10 mg/kg; cited from earlier work.
In experiment [3] the test system is middle cerebral artery occlusion in rats. Briefly: Middle cerebral artery occlusion by ligation in rats, infarction area. Type of experiment: in vivo. Particulars: MCAo, suspended in CMC 1.5%; for % Infarction Area: Only CMC = 100.00; for Infarction Area in mm^2: Only CMC control 38.5. The text has this:
Brain Res. 2012 Oct 5;1477:45-58]. Using such a method the maximum ineffective dose of the two substances, ultramicronized palmitoylethanolamide and cytidinediphosphocholine, administered separately orally suspended in carboxymethyl cellulose at 1.5% was initially sought. In the maximum ineffective doses found, the two substances were then mixed and administered together again suspended in CMC at 1.5%. The results obtained are collected in the following table 1 and the data of the synergic association between PEA and Citicoline are presented in FIGS. 1A-1B and FIGS. 2A-2B. FIGS. 1A-1B show images of coronal sections after occlusion of the middle cerebral artery (MCAo) in the absence (FIG. 1A), or in the presence of the combined treatment described above (FIG. 1B). FIG. 2 highlights the detected measurements of the infarctual area (FIG. 2A) and volume (FIG. 2B) in the absence or in the presence of the treatment.

As for `CCCCCCCCCCCCCCCC(=O)NCCO` [palmitoylethanolamide], in experiment [1], the “effect in the stroke model” value is on record as “substantial effect”. The “effect in the cranial trauma model” value in the experiment on cranial trauma model is recorded as “substantial effect”. Also, the “effect in the model of dementia from damage due to beta amyloid” value in experiment [2] is reported as “substantial effect”.
Regarding `CCCCCCCCCCCCCCCC(=O)NCCO` [PEA-um, palmitoylethanolamide], in experiment [3] (1 mg/kg orally), the “% Infarction Area” value stood at 99.22% and the “Infarction Area in mm^2” value came to 38.2 mm^2.
`C[N+](C)(C)CCOP(=O)(O)OP(=O)([O-])OC[C@H]1O[C@@H](n2ccc(N)nc2=O)[C@H](O)[C@@H]1O` [Citicoline, Cytidine-diphosphocholine]: in experiment [3] (50 mg/kg orally), the “% Infarction Area” value is listed as 99.48% and the “Infarction Area in mm^2” value was 38.3 mm^2.

Values taken from patent publication US20160045529A1, “Pharmaceutical Compositions Containing Palmitoylethanolamide And Cytidine-Diphosphocholine And Methods Of Treatment Therewith” (EPITECH GROUP S.R.L., priority 2014, published 2016).
